Laboratory results published in US9127008B2, “Morphine sulfate methanolic solvate, processes for making same and related compositions and methods for treating pain” (Johnson Matthey Public Limited Company, priority 2013, dated 2015).
Where two headings read alike, the source gives them in different places.

Tests used:
[1] = Storage of morphine sulfate in moisturizing chamber (moist room temperature air), ABUK/water/ethanol analysis; assay type: physicochemical; settings: after several days in moisturizing chamber
[2] = 2 months under air at room temperature

Structure (SMILES): CN1CC[C@]23c4c5ccc(O)c4O[C@H]2[C@@H](O)C=C[C@H]3[C@H]1C5.O=S(=O)(O)O [morphine sulfate]
- ABUK level after storage ([1]; constant flow of moist room temperature air, 17 ppm ABUK before): 123 ppm
- ethanol content after storage ([1]; 0.95% before (gas chromatography)): 0.11%
- water content after storage ([1]; 5.25% before (Karl Fischer)): 9.8%

Structure (SMILES): CN1CC[C@]23c4c5ccc(O)c4O[C@H]2[C@@H](O)C=C[C@H]3[C@H]1C5 [morphine base, morphine]
- methanol content after storage [2]: 0.08 % by weight
- water content after storage [2]: 5.70 % by weight
- ABUK level after storage ([2]; morphine base had 5 ppm ABUK at start): 117 ppm
